“Also recorded” adds a separate entry of the source.
Legend:
[1] = test system: Drosophila melanogaster (Oregon-R strain); assay: Toxicology study: larva-to-adult viability and development time; conditions: in vivo
From the text: The purpose of this study was to test and compare the potential toxic effects of compounds 5a, 6a and 7a on the larva-to-adult viability and development time in a Drosophila melanogaster (Oregon-R) flies. These studies have a relevant predictive role with the aim to anticipate possible adverse toxicological effects that may happen during preclinical studies with animal, preferably mammals. In addition, the data provided are highly quantitative.
Drosophila melanogaster (Oregon-R) flies were obtained by the University of the Balearic Islands (Spain). […] The larvae were seeded on standard food supplemented with the appropriate dose of compounds tested. Each compound was tested at 1, 10, 100, 1000 and 2000 μg/ml dissolved in standard food.
Fly adults were transferred from the serial transfer system to bottles with fresh food for 24 h. Adults 5 days old were placed on egg collecting devices (layers) containing a mixture of agar, water, acetic acid, and ethyl alcohol, with a drop of active yeast on it. Every 2 h., the layer glasses were changed, in this way, the eggs of a glass have similar age, with a maximum difference of 2 h. among them. The glasses of the layers were kept at 25° C. for at least 22 h. in Petri dishes until larvae hatched. Fifty larvae were picked with a lancet under a stereoscopic microscope and were seeded into 10×2 cm vials with 5 ml food. Vials were supplemented with 4a, 5a and 7a at 1, 10 and 100 μg/ml. As positive control we used cupric acetate (toxic) at 350 μg/ml.
The number of adult flies which emerged from each vial was counted daily until the exhaustion of the culture. The parameters studied were the larvae-to-adult viability (V) and development time.
Viability is expressed as V=NA/NL, where NL is the input number of larvae ([…] in our case) and NA the output number of adults emerging from these NL larvae. Development time was measured in days by the formula DT=ΣNidi/ΣNi where Ni is the number of flies emerging on the day di after the larvae were placed in the medium.
The data are expressed as the mean±SEM values from 3 independent experiments involving triplicate vials at the number of flies indicated.

[2] = test system: SHR hypertensive rats; assay: Blood glucose levels test in SHR hypertensive rats; assay type: in vivo, Male SHR
Experimental: Male SHR were provided by Charles River Laboratories (USA). Until the experiments were carried out, the animals have had free access to feed and water. The food was removed 12 h before glucose determination. The room temperature was kept at 22±2° C. and the light/dark cycle was of 12 hours. All procedures were submitted to the Animal Experimentation Ethics Committee.
(§1) Distinct rat groups were orally treated, once a day, with 5 mg/kg of compound 4a during the first 4 days, 10 mg/kg during the next 4 days and 15 mg/kg until the end of the treatment period or vehicle (control) for the same days. Similarly, another rat group received metformin in a 300 mg/kg dose, orally, from day 1 to the end of the treatment. Blood glucose levels were measured in triplicate 12 hours after drug administration with the aid of a GLUCOCARD TM G meter, GT-1810. Results were compared with the effect of metformin at the same dosis as the compounds. Blood samples were obtained by femoral vein punction. This method was chosen because of its noninvasive character, enabling daily measurements with the same rats throughout the entire treatment.

[3] = test system: SHR hypertensive rats; assay: Plasma triglyceride levels test in SHR hypertensive rats; assay type: in vivo, Male SHR; conditions: 25 days of treatment (5-15 mg/Kg) oral
Experimental: (§2) Male SHR were provided by Charles River Laboratories (USA). Until the experiments were carried out, the animals have had free access to feed and water. The room temperature was kept at 22±2° C. and the light/dark cycle was of 12 hours. All procedures were submitted to the Animal Experimentation Ethics Committee.
as §1, with “metformin (reference drug used for lowering glucose serum levels)” for “metformin”, “treatment. Plasma triglyceride” for “treatment. Blood glucose”, “administration by” for “administration with”, “the glycerol phosphate oxidase/peroxidase method (BioSystems S.A, Barcelona, Spain).” for “the aid of a GLUCOCARD TM G meter, GT-1810. Results were compared with the effect of metformin at the same dosis as the compounds.”

[4] = test system: SHR hypertensive rats; assay: Plasma cholesterol levels test in SHR hypertensive rats; assay type: in vivo, Male SHR
Experimental: (§3) Distinct rat groups were orally treated, once a day, with 5 mg/kg of compounds 4a or 5a or 6a during the first 4 days, 10 mg/kg during the next 4 days and 15 mg/kg until the end of the treatment period or vehicle (control) for the same days. Similarly, another rat group received metformin (MET) (reference drug used for lowering glucose serum levels) in a 300 mg/kg dose, orally, from day 1 to the end of the treatment. Plasma cholesterol levels were measured in triplicate 12 hours after drug administration by the cholesterol oxidase/peroxidase method (BioSystems S.A, Barcelona, Spain). Blood samples were obtained by femoral vein punction. This method was chosen because of its noninvasive character, enabling daily measurements with the same rats throughout the entire treatment.
as §2
as §3, with “metformin” for “metformin (MET)”, “Blood pressure was” for “Plasma cholesterol levels were”, “4” for “12”, “administration in warmed warmed, restrained, conscious rats” for “administration”, “tail-cuff” for “cholesterol oxidase/peroxidase”, “with a computerized oscillometric system recorder (Nyprem, Cibertec).” for “(BioSystems S.A, Barcelona, Spain). Blood samples were obtained by femoral vein punction.”

[5] = test system: normoglycemic rats; assay: Oral glucose tolerance test in normoglycemic rats (Examples 27, 28); assay type: in vivo, Male Wistar rats
Experimental: Male Wistar rats were utilized provided by Mato Grosso do Sul's Federal University's Biotherium. Until the experiments were carried out, the animals have had free access to feed and water. The room temperature was kept at 22±2° C. and the light/dark cycle was of 12 hours.
The glucose tolerance test is a reference method for the diagnosis of diabetes or glucose intolerance (5).
Distinct rat groups were orally treated, once a day, with 3-(carbohydrazyl-N′-phenylsubstituted)-1-benzosubstituted-β-carbolinic-3-carbohydrazide (compound 7a or ANIS-BZ) at doses: 0.5, 1 or 5 mg/kg or vehicle (control) for 3 days. Similarly, another rat group received metformin (reference drug used for lowering glucose serum levels) in a 300 mg/kg dose, orally, once a day for 3 days. The oral glucose tolerance test was carried out by administering of a glucose solution (2 g/kg body mass). Glycemia was determined at zero time (before oral administering) and at 60 minutes after the glucose overload.
Distinct groups of rats were treated orally, once a day, with N(-ethylamine)-1-benzosubstituted-β-carboline-3-carboxamide (compound 4a or ANIS-NH2) at doses: 0.5, 1 or 5 mg/kg, or vehicle for 3 days. Similarly, another group of rats received metformin in a 300 mg/kg dose orally for 3 days once a day. The oral glucose tolerance test was done under the administration of a glucose solution (2 g/kg body mass). Glycemia will be determined at the zero (before oral administration) time and 60 minutes after glucose overload.

[6] = test system: female Swiss mice; assay: Acute oral toxicology study in a mice model; assay type: in vivo; conditions: oral 2000 mg/kg single dose, observation for 14 days
Experimental: The experiments were conducted using female Swiss mice (20-30 g), housed under a 12-h light-dark cycle, with controlled humidity (60-80%), and temperature (22±1° C.). Food and water were freely available to the mice.
Female mice (n=6) were orally (2000 mg/kg) administered with a single dose of 4a, 5a, and 7a for the observation of acute signs of toxicity until 14 days. […] The observations comprised the behavior and manifestations of the toxic symptoms, and were carried out according to the Guidelines of the Organization for Economic Cooperation and Development (OECD, 2008).
All compounds were dissolved in sterile saline and were administered by oral gavage to mice based in the weight, for example 20 g received 20 μL.
The data are expressed as mean±S.E.M. of experiments. Statistical significance was determined through one-way analysis of variances (ANOVA), followed by either Newman-Keuls test. A p<0.05 was considered statistically significant. Graphs were drawn and statistical analysis was carried out using GraphPad Prism version 5.00 for Windows (GraphPad Software, San Diego, Calif., USA).

[7] = test system: SHR hypertensive rats; assay: Systolic blood pressure test in SHR hypertensive rats; assay type: in vivo, Male Spontaneously Hypertensive Rats (SHR); conditions: metformin 300 mg/kg oral
Experimental: Male Spontaneously Hypertensive Rats (SHR) were provided by Charles River Laboratories (USA). Until the experiments were carried out, the animals have had free access to feed and water. The room temperature was kept at 22±2° C. and the light/dark cycle was of 12 hours. All procedures were submitted to the Animal Experimentation Ethics Committee.
Distinct rat groups were orally treated, once a day, with 5 mg/kg of compounds 4a or 5a or 6a during the first 4 days, 10 mg/kg during the next 4 days and 15 mg/kg until the end of the treatment period or vehicle (control) for the same days. Similarly, another rat group received metformin (MET) (reference drug used for lowering glucose serum levels) in a 300 mg/kg dose, orally, from day 1 to the end of the treatment. Plasma cholesterol levels were measured in triplicate 12 hours after drug administration by the cholesterol oxidase/peroxidase method (BioSystems S.A, Barcelona, Spain). […]
Distinct rat groups were orally treated, once a day, with 5 mg/kg of compounds 4a or 5a or 6a during the first 4 days, 10 mg/kg during the next 4 days and 15 mg/kg until the end of the treatment period or vehicle (control) for the same days. […] Blood pressure was measured in triplicate 4 hours after drug administration in warmed warmed, restrained, conscious rats by the tail-cuff method with a computerized oscillometric system recorder (Nyprem, Cibertec). […]

[8] = test system: normoglycemic rats; assay: Oral glucose tolerance test in normoglycemic rats (Examples 36, 37); assay type: in vivo, Male Wistar rats; conditions: metformin 300 mg/kg orally daily
Experimental: Male Wistar rats (200-300 g) were utilized provided by Mato Grosso do Sul's Federal University's Biotherium. Until the experiments were carried out, the animals have had free access to feed and water. The room temperature was kept at 22±2° C. with controlled humidity (60-80%) and the light/dark cycle was of 12 hours.
The glucose tolerance test was evaluated as described by Al-Awaki et al (6).
Rats were randomly divided into […] groups of four animals that were control group that received only a solution of saline, compound 23b group (10 mg/kg), compound 21a group (10 mg/kg) and metformin 300 mg/kg group. Respective treatments were made orally and daily for five days.
(§4) On day 1, 3, and 5, different groups of rats were fasted overnight (at least 12 h) prior to the test, but with given water ad libitum. The oral glucose tolerance test was carried out by administering of a glucose solution (2 g/kg body weight) according to Al-Awadi et al (6). Glycemia was determined in blood samples collected from the tail vein at −30 minutes (just before the administration of the oral extract) time 0 (prior to the glucose overload) and at 60 minutes after the glucose overload. Serum glucose concentrations were measured by the glucose oxidase method (7) using commercial kit (Accuchek-performa (Roche)) according to the manufacture's instructions.
Male Wistar rats (200-300 g) were utilized provided by Mato Grosso do Sul's Federal University's Biotherium. Until the experiments were carried out, the animals have had free access to feed and water. The room temperature was kept at 22±2° C. with controlled humidity (60-80%) and the light/dark cycle was of 12 hours. All procedures were submitted to the Animal Experimentation Ethics Committee.
The compounds 21b, 23a and 23d were diluted firstly in 20 μl of ethanol and after in 980 μl de saline. Compounds 21e, 23e and 26b were dissolved in sterile saline and were administered by oral gavage to rats based in the weight, for example 200 g received 200 μL.
54 rats were randomly divided into […] groups of five-eight animals that were control group (n=8) that received only a solution of vehicle, compound 21b group (n=5) (10 mg/kg), compound 21e group (n=5) (10 mg/kg), compound 23e group (n=5) (10 mg/kg), compound 23a group (n=5) (10 mg/kg), compound 23d group (n=5) (10 mg/kg), compound 26b group (n=5) (10 mg/kg) and metformin (n=6) 300 mg/kg group. Respective treatments were made orally and daily for five days.
as §4, with “manufactures's” for “manufacture's”

COc1ccc(-c2nc(C(=O)NCCN)cc3c2[nH]c2ccccc23)cc1 [Compound 4a, N(-ethylamine)-1-benzosubstituted-β-carboline-3-carboxamide]
larvae-to-adult viability and development time [1]: not affected
blood glucose decrease compared to the vehicle-control group ([2]; doses from 5 to 15 mg/kg oral, treatment periods of 4-15 days): 5-7%
plasma triglyceride levels [3]: statistically significant (p<0.05), inhibition of plasma triglyceride levels
plasma cholesterol levels ([4]; 25 days of treatment (15 mg/Kg) oral, effect more pronounced for 5a and 7a): inhibition of plasma cholesterol levels
glycemic levels of animals that received an oral glucose overload ([5]; after 3 days, 0.5 mg/kg oral once a day, vs control group): only the 1 and 5 mg/kg doses reduced statistically significant the glycemic levels
glycemic levels of animals that received an oral glucose overload ([5]; after 3 days, 1 mg/kg oral once a day, vs control group): reduced statistically significant the glycemic levels
glycemic levels of animals that received an oral glucose overload ([5]; after 3 days, 5 mg/kg oral once a day, vs control group, 5 mg/kg): reduces the glycemic levels; also recorded: reduced statistically significant the glycemic levels
glycemic levels of animals that received an oral glucose overload ([5]; first day, 5 mg/kg oral, vs control group, 60 min after glucose 2 g/kg): reduces the glycemic levels
mortality or behavioral disorders (acute signs of toxicity) [6]: did not produce mortality or any behavioral disorders

CN(C)C(=N)N=C(N)N [metformin, reference compound]
effect on blood glucose levels ([2]; Metformin 300 mg/kg for 23 days): slightly greater effect on blood glucose levels
inhibitory effect on systolic blood pressure [7]: This effect at 5-15 mg/kg is greater than that of metformin
plasma cholesterol levels ([4]; 25 days, Metformin 300 mg/Kg oral): inhibition of plasma cholesterol levels
glucose levels in oral glucose tolerance test ([8]; fifth day): reduced the glucose levels
glucose levels in oral glucose tolerance test ([8]; first day): significant reduction in glucose levels
glucose levels in oral glucose tolerance test ([8]; third day): induces reduction of glycemic levels; also recorded: significant reduction in glucose levels
glycemic levels of animals that received an oral glucose overload ([5]; after 3 days, metformin 300 mg/kg oral once a day): induces reduction of glycemic levels
glycemic levels of animals that received an oral glucose overload ([5]; first day, metformin 300 mg/kg oral): induces reduction of glycemic levels
